{
  "source": "patent US12600740B2",
  "about": "“Fluorinated N-acetyl glucosamine analogs and xylose derivatives” (UTI Limited Partnership, priority 2018, dated 2026)",
  "key": {"[1]": {"test_system": "mice demyelinated with lysolecithin", "test": "Lysolecithin demyelination of the mouse spinal cord", "type": "in vivo", "details": "100 mg/kg IP twice a day, Day 3 to Day 6; Day 7 post-demyelination; listed as difluorosamine", "description": "On Day 0, 7 mice were injected with 0.5 μL of 1.0% lysolecithin in the ventral funiculus of the spinal cord. Thereafter, 4 mice were treated from Day 3 to Day 6 with saline vehicle IP twice a day. 3 mice were treated from Day 3 to Day 6 with difluorosamine 100 mg/kg IP twice a day. On Day 7, mice were transcardially perfused with cold PBS and 4% PFA. Thoracic spinal cords were dissected, fixed and analyzed. Sections adjacent to lesion epicenters were triple-stained for Olig2 (cells of the oligodendrocyte lineage), PDGFRα (oligodendrocyte precursor cell) and MBP (myelin). The number of Olig2+, Olig2+ PDGFRα+ (oligodendrocyte precursor cell), and Olig2+ PDGFRα− (presumed mature oligodendrocytes) cells per field of view were quantified blindly. Statistics were conducted using 1-tailed t-tests."}, "[2]": {"test_system": "CSPG production by astrocytes", "test": "Western blot of astrocyte conditioned medium, MAB2030 (chondroitin sulfate GAG stubs)", "type": "cell-based, mouse", "details": "astrocyte conditioned media, 50 μM, 48 hours", "excerpt": "Astrocytes are major producers of CSPGs following injury in the CNS [Jones, L. L., Margolis, R. U. & Tuszynski, M. H. The chondroitin sulfate proteoglycans neurocan, brevican, phosphacan, and versican are differentially regulated following spinal cord injury. Experimental Neurology 182, 399-411 (2003); Tang, X., Davies, J. E. & Davies, S. J. Changes in distribution, cell associations, and protein expression levels of NG2, neurocan, phosphacan, brevican, versican V2, and tenascin-C during acute to chronic maturation of spinal cord scar tissue. […] The Journal of neuroscience: the official journal of the Society for Neuroscience 20, 2427-2438 (2000); McKeon, R. J., Jurynec, M. J. & Buck, C. R. The chondroitin sulfate proteoglycans neurocan and phosphacan are expressed by reactive astrocytes in the chronic CNS glial scar. The Journal of neuroscience: the official journal of the Society for Neuroscience 19, 10778-10788 (1999); Haas, C. A., Rauch, U., Thon, N., Merten, T. & Deller, T. Entorhinal cortex lesion in adult rats induces the expression of the neuronal chondroitin sulfate proteoglycan neurocan in reactive astrocytes. The Journal of neuroscience: the official journal of the Society for Neuroscience 19, 9953-9963 (1999)] and they may help drive progression of disability in a model of progressive MS [Mayo, L. et al. Regulation of astrocyte activation by glycolipids drives chronic CNS inflammation. Nature medicine 20, 1147-1156 (2014)]. Therefore astrocytes were used as model cells to determine the ability of the sugar analogs to reduce synthesis of CSPGs. Since CSPGs are exported out of cells, the conditioned media from analog-treated astrocytes were probed by Western blots (FIG. 4). We used antibodies to both the stubs of chondroitin sulfate GAGs attached to the core protein (MAB2030) and to intact 4-sulfated chondroitin sulfate sidechains (2H6) (FIG. 4a). Particularly, we used the 2H6 antibody to label intact 4-sulfated chondroitin sulfate sidechains, and the MAB2030 antibody to detect the stubs of chondroitin sulfate GAGs attached to the core protein. […] 1998, 160 (8), 3812-3819. Poole Poole C. A.; Glant T. T.; Schofield J. R.; Chondrons from articular cartilage. (IV). Immunolocalization of proteoglycan epitopes in isolated canine tibial chondrons. J. Histochem. Cytochem. 1991, 39 (9), 1175-1187].\nAstrocytes were plated in uncoated 6-well plates (3 replicate wells per treatment) at 1×10^6 cells/well in mixed glial media, and incubated at 5% CO2 and 37° C. Astrocytes were treated with compounds at 50 μM in AIM-V media for 48 hours. Media was pooled from 3 replicate wells in 15 ml 100K cutoff centricon tubes (EMD Millipore, #UFC905008), which were spun on an ultracentrifuge at 5000× g for 2 cycles of 10 minutes each. When harvested, the cell lysate was kept on ice for 5 minutes with 250 μL of RIPA buffer (ThermoFisher Scientific #89900) containing proteinase inhibitor, and then collected and centrifuged at 14000 g for 5 minutes. Total protein was quantified using a Bradford assay. Conditioned media that were to be probed for chondroitin 4-sulfate GAGs (Millipore, #MAB2030) were first digested with 0.2 U/ml chondroitinase ABC for overnight at 37° C. to remove chondroitin sulfate sidechains. Blots that were to be probed with CSA (2H6, Cosmo) or CS56 (Abcam #ab11570) were not exposed to chondroitinase ABC. Samples were heat denatured with NuPAGE® LDS Sample buffer at 70° C. for 10 minutes and then loaded into 3-8% tris-acetate pre-cast gels (ThermoFisher, #EA0478BOX). The gels were electrophoresed at a constant 150 V for 90 minutes and transferred to a […] polyvinylidene fluoride membrane at a constant 250 mA for 60 minutes. The membranes were blocked for one hour with 10% skim milk in Tris-buffered saline (TBS; 0.9% NaCl, 10 mM Tris-HCl, pH 7.5) containing 0.5% Tween 20 (TBS-T). Primary antibodies were added in 3% skim milk and incubated overnight at 4° C. […]"}, "TNFα": {"test_system": "TNFα", "test": "TNFα ELISA of LPS-stimulated bone marrow-derived macrophages", "type": "cell-based, mouse", "details": "BMDMs, 50 μM, LPS 100 ng/ml, 24 hours", "description": "Multiple Sclerosis: Mechanisms and Immunotherapy. Neuron 97, 742-768 (2018)]. It was tested whether the sugar analogs could affect the activity of macrophages, using bone marrow-derived macrophages (BMDMs) stimulated with lipopolysaccharide (LPS, 100 ng/ml). The sugar analogs were added at 50 μM prior to LPS, and the conditioned medium was collected after 24 hours and assayed for levels of the secreted cytokine TNFα. […] Testing Toxicity of Sugar Analogs\nFemurs were carefully removed from euthanized female C57BI/6 mice, and marrow was flushed into a culture plate with cold complete bone marrow growth medium (DMEM, 10% fetal bovine serum, and the supplements 1% penicillin/streptomycin, 1% glutamine, 1% non-essential amino acids, and 10% supernatant from L929 cell-line enriched in macrophage-colony stimulating factor). Cells were spun at 1100 rpm for 10 minutes, resuspended in fresh growth medium and plated at 10×10^6 cells/ml in a 10 cm culture dish. Cells were grown in DMEM with supplements and L929 supernatant for 5 days, then half the medium was replaced with fresh growth medium. On day 7 growth medium was replaced with DMEM with 10% FBS and supplements. Cells were used on day 8, and experiments were conducted in DMEM with 1% FBS and supplements unless otherwise specified.\nBMDM were plated at 25,000 cells in 96-well plates in DMEM+L929 media. After 24 hours media was changed to DMEM+1% FBS. One hour later, cells were treated with […] compounds or PBS. After 1 hour LPS (final concentration 100 ng/ml) was added. Following 24 hours, conditioned media was harvested for TNFα ELISA (Thermo Scientific), which was performed according to manufacturer's instructions."}, "splenocytes [3]": {"test_system": "splenocytes", "test": "Splenocyte thymidine proliferation assay (anti-CD3/anti-CD28)", "type": "cell-based, mouse", "details": "25 μM, 48 hours", "description": "It was assessed whether the glucosamine analogs have immunomodulatory properties on splenocytes isolated in culture. T cells within the splenocyte pool were polyclonally activated with anti-CD3 and anti-CD28 antibodies in the presence of compounds for 48 hours, and proliferation was determined by the uptake of tritiated thymidine and expressed as counts per minute. The relative change in proliferation of treated versus control splenocytes was taken in order to rank the compounds across multiple independent experiments (FIG. 8a).\nThe spleens were isolated from 8-10-week-old female C57BL/6 mice and homogenized. The cells were isolated by Ficoll gradient and spun for 30 min at 1,800 r.p.m. The cell suspension was removed and the cells were washed once with PBS. The cell pellet was subsequently re-suspended in Roswell Park Memorial Institute media containing 10% fetal bovine serum, 1% penicillin/streptomycin, 1% sodium pyruvate and 1% L-glutamine. Trypan blue exclusion was used to count live cells, and the cells were plated at 2.5×10^5 cells per well in a round-bottom 96-well plate and activated with 1,000 ng/ml plate-bound anti-CD3 and 1,000 ng/ml anti-CD28 suspended in media to preferentially activate T lymphocytes. Compounds were added at final concentrations of 25 μM. The cells were kept at 37° C. and 5% CO2 for 30 h, after which 10 μl/well (1 μCi per well) of 3H-thymidine was added for 18 h. The cells containing thymidine were harvested onto filter mats using a cell harvester and mats were allowed to dry for 24 h. The results were read by liquid scintillation counts."}, "splenocytes [4]": {"test_system": "splenocytes", "test": "Propidium iodide DNA cell cycle flow cytometry of splenocytes", "type": "cell-based, mouse", "details": "activated splenocytes", "excerpt": "Cell-cycle flow cytometry with propidium iodide was used to corroborate the above results, and ensure the reduction in proliferation was not due to cell death. […] To further investigate whether the reduction of proliferation was due to cell death, Annexin V and propidium iodide staining were used to differentiate necrotic cells (propidium iodide+), apoptotic cells (annexin V+), dead cells (propidium iodide+ and annexin V+), and live cells (propidium iodide-annexin V−).\nCell cycle staining with propidium iodide (PI) and analysis by flow cytometry gives percentage of cells in apoptosis, G1, G2, and synthesis, and apoptosis. Following a membrane permeabilization, PI chelates to DNA and level of staining specifies the stage of the cell cycle (e.g., G2 phase will have twice the DNA and thus twice the PI signal as G1 phase, apoptotic cells contain less DNA than healthy cells and are identified by low PI staining). 1×10^6 splenocytes were used per sample, with four replicates per condition. Cells were collected into a tube with PBS and centrifuged (200 r.p.m. for 5 minutes). […] Suspension was transferred to a FACs tube and analyzed. Annexin V/Propidium iodide staining was detected using the Annexin V FITC apoptosis detection kit (BD Biosciences, #556547), which was performed according to manufacturer's instructions."}},
  "note": "“Also recorded” adds a separate entry of the source.",
  "data": [
    {"compound": "CC(=O)NC1C(OC(C)=O)OC(COC(C)=O)C(F)(F)C1OC(C)=O", "note": "[Compound 16, 2-Acetamido-1,3,6-tri-O-acetyl-2,4-dideoxy-4,4-difluoro-α/β-D-xylo-hexopyranose]", "values": [
      {"measurement": "percentage of Olig2+ oligodendrocyte lineage cells that are Olig2+ PDGFRα+ OPCs", "setting": "[1]", "value": "significant increase; also recorded: increased the proportion of oligodendrocyte precursor cells (OPCs)"}
    ]},
    {"compound": "CCC(=O)OCC1OC(O)C(NC(C)=O)C(OC(=O)CC)[C@@H]1F", "note": "(mixture of isomers) [Compound 11, 2-Acetamido-2,4-dideoxy-4-fluoro-3,6-di-O-propanoyl-α/β-D-glucopyranose]", "values": [
      {"measurement": "effect on CSPG production by astrocytes", "setting": "[2]", "value": "did not lower CSPG production in astrocytes"},
      {"measurement": "TNFα production by LPS-stimulated macrophages", "setting": "TNFα", "value": "enhanced TNFα levels"},
      {"measurement": "splenocyte proliferation", "setting": "splenocytes [3]", "value": "reduced splenocyte proliferation"}
    ]},
    {"compound": "CC(=O)NC1C(O)OC(COC(C)=O)[C@@H](F)C1OC(C)=O", "note": "(stereo in doubt) [Compound 10]", "values": [
      {"measurement": "percentage of cells in cell cycle phases", "setting": "splenocytes [4]", "value": "reduced the percentage of cells in the S (DNA synthesis)-phase of the cell cycle"}
    ]}
  ]
}
